Here are results for twelve compounds from ChEMBL document CHEMBL3580620, “Anti-inflammatory and antitumor phenylpropanoid sucrosides from the seeds of Raphanus sativus” (Bioorg Med Chem Lett, 2014).

One data set has as its system A549. The data set is described as follows: Cytotoxicity against human A549 cells assessed as cell growth inhibition after 48 hrs by SRB assay. The class given is functional, cell-based. The note with it: A549, 48 h.
A further data set has as its system BV-2. The data set is described as follows: Inhibition of LPS-induced nitric oxide production in mouse BV2 cells treated for 30 mins prior to LPS stimulation for 24 hrs by Griess assay. The class given is functional, cell-based.
Another data set relates to SK-MEL-2. The data set is described as follows: Cytotoxicity against human SK-MEL-2 cells assessed as cell growth inhibition after 48 hrs by SRB assay. The note with it: SK-MEL-2, 48 h. Format: functional, cell-based. (In general: In SRB staining, fixed cells bind dye roughly in proportion to their protein.)
The nature of data set [1]: Antioxidant activity assessed as DPPH radical scavenging activity after 10 mins by spectrophotomteric analysis. Format: physicochemical.
Data set [2] in a line: Cytotoxicity against mouse BV2 cells assessed as inhibition of cell viability up to 50 uM by MTT assay. Format: cell-based. The note with it: bv-2. A general note: Formazan colour is commonly taken as a measure of viable cells.
In the next data set the test system is SK-OV-3. The data set is described as follows: Cytotoxicity against human SKOV3 cells assessed as cell growth inhibition after 48 hrs by SRB assay. The note with it: SK-OV-3, 48 h. Format: functional, cell-based.
A further data set relates to HCT-15. The data set is described as follows: Cytotoxicity against human HCT15 cells assessed as cell growth inhibition after 48 hrs by SRB assay. The class given is functional, cell-based. The note with it: HCT-15, 48 h.
The next data set deals with RAW264.7. The data set is described as follows: Inhibition of LPS-induced nitric oxide production in mouse RAW264.7 cells at 100 uM. The class given is functional.
Data set [3] in a line: Cytotoxicity against mouse BV2 cells assessed as inhibition of cell viability by MTT assay. The note with it: read-out: INH. The class given is cell-based, BV-2.

Each structure is given as a SMILES string. Values after ≈ are worked out from the molar mass of the structure shown.

`COc1cc(/C=C/C(=O)OC[C@H]2O[C@H](O[C@]3(CO)O[C@H](CO)[C@@H](OC(=O)/C=C/c4cc(OC)c(O)c(OC)c4)[C@@H]3OC(=O)/C=C/c3cc(OC)c(O)c(OC)c3)[C@H](O)[C@@H](O)[C@@H]2O)cc(OC)c1O`: the IC50 in the data set on A549 was 25.9 µM; in the data set on BV-2, 48.9 µM; with SK-MEL-2 it was 18.6 µM; in data set [1], 27.1 µg/mL (≈ 28.2 µM); in the data set on SK-OV-3 it was 19.2 µM; with HCT-15 it was 14.1 µM. Also, the Activity result in data set [2] is recorded as “Non-toxic”.

Regarding `COc1cccc2c1C(=O)c1c(O)c3c(c(O)c1C2=O)C[C@@](O)(C(=O)CO)C[C@@H]3O[C@H]1C[C@H](N)[C@H](O)[C@H](C)O1` [DOXORUBICIN], the IC50 with SK-MEL-2 was determined as 0.001 µM; in the data set with SK-OV-3, 0.012 µM.

As for `OC[C@H]1O[C@@](CO)(O[C@H]2O[C@H](CO)[C@@H](O)[C@H](O)[C@H]2O)[C@@H](O)[C@@H]1O` [SUCROSE], the IC50 with A549 is above 30 µM; in the data set on BV-2, above 200 µM; in the data set on SK-MEL-2, above 30 µM; in [1] it was “Not Active”; with SK-OV-3 it was above 30 µM; with HCT-15, above 30 µM. In addition, in data set [2], the Activity entry is given as “Non-toxic”.

Take `OC[C@H]1O[C@@H](OC/C=C/c2ccc(O)cc2)[C@H](O)[C@@H](O)[C@@H]1O`: the inhibition at 100 µM with RAW264.7 is 50%.

In the data set with RAW264.7, `COc1cc(/C=C/CO[C@@H]2O[C@H](CO)[C@@H](O)[C@H](O)[C@H]2O)ccc1O` returned an inhibition at 100 µM of 50%.

Consider `COc1cc(/C=C/C(=O)O[C@H]2[C@H](O)[C@@H](CO)O[C@@]2(CO)O[C@H]2O[C@H](CO)[C@@H](O)[C@H](O)[C@H]2O)cc(OC)c1O`, for which the IC50 in the data set on A549 came to 23.9 µM; in the data set on BV-2 it was 37.4 µM; in the data set on SK-MEL-2, 23.9 µM; in data set [1] it was 78.2 µg/mL (≈ 143 µM); with SK-OV-3, 20.5 µM; in the data set with HCT-15, 27 µM. For the same compound, the cytotoxicity in data set [3] was determined as 15%.

For the compound `COc1cc(/C=C/C(=O)OC[C@H]2O[C@@](CO)(O[C@H]3O[C@H](COC(=O)/C=C/c4cc(OC)c(O)c(OC)c4)[C@@H](O)[C@H](O)[C@H]3O)[C@@H](OC(=O)/C=C/c3cc(OC)c(O)c(OC)c3)[C@@H]2O)cc(OC)c1O`, the IC50 with A549 came out at 20.8 µM; with BV-2, 21.6 µM; in the data set on SK-MEL-2, 9.5 µM; in data set [1], 44.59 µg/mL (≈ 46.4 µM); in the data set on SK-OV-3 it was 6.71 µM; in the data set on HCT-15, 12.4 µM. Further, the Activity entry in data set [2] is “Non-toxic”.

As for `COc1cc(/C=C/C(=O)OC[C@H]2O[C@H](O[C@]3(CO)O[C@H](CO)[C@@H](O)[C@@H]3OC(=O)/C=C/c3ccc(O)c(OC)c3)[C@H](O)[C@@H](O)[C@@H]2O)ccc1O`, the half-maximal inhibitory concentration (IC50) in the data set with A549 was above 30 µM; with BV-2, 45.5 µM; with SK-MEL-2, 27.9 µM; in data set [1], 35.33 µg/mL (≈ 50.9 µM); in the data set on SK-OV-3, 20 µM; with HCT-15, 17.8 µM. In addition, in data set [2], the Activity entry was “Non-toxic”.

Turning to `O=C1O[C@H]([C@@H](O)CO)C(O)=C1O` [ASCORBIC ACID], in data set [1], the IC50 came out at 7.63 µg/mL (≈ 43.3 µM).

With `COc1cc(/C=C/C(=O)OC[C@H]2O[C@H](O[C@]3(CO)O[C@H](CO)[C@@H](O)[C@@H]3OC(=O)/C=C/c3cc(OC)c(OC)c(OC)c3)[C@H](O)[C@@H](O)[C@@H]2O)cc(OC)c1O`, the IC50 in the data set on A549 is 26 µM; in the data set on BV-2 it was 27 µM; in the data set on SK-MEL-2 it was 21.6 µM; in data set [1] it was 54.98 µg/mL (≈ 71.5 µM); with SK-OV-3, 24.6 µM; with HCT-15 it was 18.3 µM. In addition, in data set [2], the Activity entry is reported as “Non-toxic”.

Take `COc1cc(/C=C/C(=O)OC[C@H]2O[C@H](O[C@]3(CO)O[C@H](CO)[C@@H](O)[C@@H]3OC(=O)/C=C/c3cc(OC)c(O)c(OC)c3)[C@H](O)[C@@H](O)[C@@H]2O)cc(OC)c1O`: the IC50 stood at 21.1 µM with A549; 37.1 µM with BV-2; 14.2 µM in the data set on SK-MEL-2; 29.63 µg/mL (≈ 39.3 µM) in [1]; 16.7 µM in the data set with SK-OV-3; 17.2 µM in the data set with HCT-15. Also, the Activity result in data set [2] is “Non-toxic”.

Regarding `COc1cc(/C=C/C(=O)O[C@H]2[C@H](OC(=O)/C=C/c3cc(OC)c(O)c(OC)c3)[C@@H](CO)O[C@@]2(CO)O[C@H]2O[C@H](COC(=O)/C=C/c3cc(OC)c(O)c(OC)c3)[C@@H](O)[C@H](O)[C@H]2O)ccc1O`, the concentration for half-maximal inhibition (IC50) with A549 came to 26.9 µM; in the data set with BV-2, 34.8 µM; with SK-MEL-2, 16.7 µM; in [1], 23.05 µg/mL (≈ 24.8 µM); with SK-OV-3, 23.8 µM; with HCT-15, 18.9 µM. In data set [2], the Activity result was “Non-toxic”.

Broadly, the IC50 is the point on the concentration scale where inhibition reaches its midpoint. A word on the inhibition: it is the change of the read-out against control, counted positive when it falls. High values mean a strong effect, low ones a weak effect.
